For one assay, the target named is washed human platelets (Homo sapiens, UniProt P05106+P08514). In words: Inhibition of thrombin-induced platelet aggregation in washed human platelets. The assay is classed as cell-based. The note with it: for inhibition at 100 µM: peptide 10^-4 M; for IC50: linear regression of dose response curve. The procedure:
In one assay, the peptides are tested for their inhibition of thrombin-induced platelet aggregation in washed human platelets. The % inhibition is determined for the test peptide by comparing the extent of platelet aggregation in the presence and absence of the peptide.
Platelet Preparation: 60 ml of whole blood is freshley drawn and anticoagulated with 1/10th volume of CCD (100 mM Na Citrate and 136 mM glucose, pH 6.5 with HCl) at room temperature (RT). The blood is divided into 2 disposable 60 ml plastic centrifuge tubes and centrifuged for 3 minutes at 1000×g, allowing the centrifuge to coast to a stop (no brake). The platelet rich plasma (PRP) is withdrawn, being careful that no white cells are taken and is placed in a 60 ml centrifuge tube. The tube is immediately placed on ice for 15 minutes. After the 15 minutes at 0° C., 1/2 volume of ice cold CCD is added (i.e. 15 ml CCD/30 ml of PRP). The tube is mixed and the contents are divided equally into two centrifuge tubes. These are then centrifuged at 0° C. for 10 minutes at 900×g (no brake). The supernatant is carefully poured off. The platelet pellet is gently resuspended in 1/2 the original volume of PRP in a 0° C. modified Tangen-Hepes-BSA buffer, pH 7.4, consisting of 145 mM NaCl, 5 mM KCl, 0.05 mM CaCl2, 0.1 mM MgCl2, 11 mM glucose, 15 mM Hepes (N-2-hydroxyethylpiperazine-N'-2-ethanesulfonic acid), 1 mg/ml bovine serum albumin, (pH adjusted with NaOH). The resuspended pellets are combined into 1 centrifuge tube and incubated undisturbed at 37° C. for 30 minutes. After the incubation, the platelet suspension is removed and an aliquot is quickly counted in a hemocytometer or a Coulter® Counter (Coulter Electronics, Hialeah, Fla.). The platelet count is adjusted to 3×10^8 cells/ml with the Tangen-Hepes-BSA buffer.
Compound Testing: Aggregation studies are accomplished using a Payton aggregometer (Payton Scientific, Inc., Buffalo, N.Y.). […] All compounds are diluted to a working concentration of 10^-3 M with double distilled water. The reaction mixture consisted of 400 μl of 3×10^8 /ml washed platelets, 50 μl of buffer (control) or test compound at 10^-3 M with a final concentration of 10^-4 M. Platelets, test compound or buffer are placed in cuvettes in the aggregometer for a 1 minute preincubation before adding thrombin. 50 μl of 0.5 U/ml thrombin is added to cuvettes and the aggregation is monitored for 1 minute, which is the time for maximal aggregation of the platelets. All compounds are run in duplicate. The entire test is run within 3 hours, since this is the maximal viability of the platlets.

For assay [1], the target named is human platelets in platelet-rich plasma (Homo sapiens, UniProt P05106+P08514). Description: In-vitro human platelet aggregation in platelet-rich plasma (PRP), ADP-induced. Type of assay: cell-based. The note with it: for IC50: linear regression of dose response curve. The procedure:
In another assay, platelet aggregation is examined in platelet-rich plasma which also is rich in fibrinogen and other plasma proteins.
The syringe is rotated carefully as blood is being drawn to mix the citrate. Platelet-rich plasma (PRP) is prepared by centrifugation at 100×g for 10 minutes at room temperature, allowing the centrifuge to coast to a stop without braking. The PRP is removed from the blood with a plastic pipette and placed in a plastic, capped, 50 ml Corning conical sterile centrifuge tube. The tube is capped and placed at room temperature. Platelet poor plasma (PPP) is prepared by centrifuging the remaining blood at 2000×g for 15 minutes at room temperature allowing the centrifuge to coast to a stop without braking. The PRP is adjusted with PPP to a count of 2-3×10^8 platelets per ml. 400 μl of the PRP preparation and 50 μl of the compound to be tested or saline were preincubated for 1 minute at 37° C. in a Payton aggregometer (Payton Scientific, Inc., Buffalo, NY). 50 μl of adenosine 5'diphosphate (ADP) (50 μM) is added to the cuvettes and the aggregation is monitored for 1 minute. All compounds are tested in duplicate. The entire procedure is run within 3 hours, since this is the maximal viability of the platelets. The saline instead of compound is used to determine the maximal aggregation.

Assay [2] deals with collagen induced thrombocytopenia (platelet aggregation). In words: In vivo rat thrombocytopenia (collagen induced). The note with it: for inhibition in the in vivo thrombocytopenia assay: dose not printed there; for % Inhibition at 1 mg/kg: collagen 60 μg/kg. As for the experimental part: In yet another test, the effect of the peptide on collagen induced thrombocytopenia (platelet aggregation) is measured in vivo in the art. Again, the % inhibition is determined for the test peptide and compared against a saline or ethanol vehicle in the absence of peptide.
Male rats (Charles River, CRL:CD(SD), 400-450 g) were used. The rats were anesthetized with Na pentabarbital (65 mg/kg, Vet Labs, Limited, Inc., Lenexa, KA). Two incisions were made to expose both jugular veins. Using an infusion pump (Harvard Apparatus, South Natick, Mass.) and a 5 cc syringe with a 19 g. butterfly, the test compound or vehicle was infused into the left jugular vein at a rate of 0.39 ml/min for 3 min. After 2 min of compound/vehicle infusion, collagen (60 μg/kg) (Helena Laboratories,Beaumont, TX) was injected with a 1 ml syringe into the right jugular vein. The body cavity was opened and the vena cava was exposed for blood sampling. One min after the collagen injection, compound infusion was stopped and blood was sampled from the vena cava (within 30 sec) with a 3 cc syringe containing […] of 4.5% EDTA/Tris (0.1M) (pH 7.35) plus 150 μM indomethacin. Platelet rich plasma (PRP) was prepared by centrifuging the blood at 126× g for 10 min. Five μl of PRP was counted in 20 ml of Isoton® III in a Coulter Counter. Percent inhibition of collagen induced aggregation was calculated by comparison of the number of platelets counted in treated animals with numbers for animals receiving no collagen and with counts from animals receiving vehicle and collagen. Estimation of potency was based on inhibition of collagen-induced thrombocytopenia.
Four animals were tested with each compound to give the data shown.

Where two headings read alike, the source gives them in different places. Non-standard residues stand in square brackets, D forms with d. Residues, ends and D or L forms follow the SMILES beside them.

This note sets out measurements from US4857508A, “Novel platelet-aggregation inhibitor peptide derivatives” (Monsanto Company, priority 1987, dated 1989).

Broadly, the inhibition is how much of the control response was suppressed. A high value points to strong suppression. The % Inhibition is the percentage by which the read-out fell short of the control. A higher % Inhibition goes with a strong effect. In general, IC50 refers to the midpoint of a concentration-inhibition curve.

Sequence of washed human platelets (P08514 32-1039): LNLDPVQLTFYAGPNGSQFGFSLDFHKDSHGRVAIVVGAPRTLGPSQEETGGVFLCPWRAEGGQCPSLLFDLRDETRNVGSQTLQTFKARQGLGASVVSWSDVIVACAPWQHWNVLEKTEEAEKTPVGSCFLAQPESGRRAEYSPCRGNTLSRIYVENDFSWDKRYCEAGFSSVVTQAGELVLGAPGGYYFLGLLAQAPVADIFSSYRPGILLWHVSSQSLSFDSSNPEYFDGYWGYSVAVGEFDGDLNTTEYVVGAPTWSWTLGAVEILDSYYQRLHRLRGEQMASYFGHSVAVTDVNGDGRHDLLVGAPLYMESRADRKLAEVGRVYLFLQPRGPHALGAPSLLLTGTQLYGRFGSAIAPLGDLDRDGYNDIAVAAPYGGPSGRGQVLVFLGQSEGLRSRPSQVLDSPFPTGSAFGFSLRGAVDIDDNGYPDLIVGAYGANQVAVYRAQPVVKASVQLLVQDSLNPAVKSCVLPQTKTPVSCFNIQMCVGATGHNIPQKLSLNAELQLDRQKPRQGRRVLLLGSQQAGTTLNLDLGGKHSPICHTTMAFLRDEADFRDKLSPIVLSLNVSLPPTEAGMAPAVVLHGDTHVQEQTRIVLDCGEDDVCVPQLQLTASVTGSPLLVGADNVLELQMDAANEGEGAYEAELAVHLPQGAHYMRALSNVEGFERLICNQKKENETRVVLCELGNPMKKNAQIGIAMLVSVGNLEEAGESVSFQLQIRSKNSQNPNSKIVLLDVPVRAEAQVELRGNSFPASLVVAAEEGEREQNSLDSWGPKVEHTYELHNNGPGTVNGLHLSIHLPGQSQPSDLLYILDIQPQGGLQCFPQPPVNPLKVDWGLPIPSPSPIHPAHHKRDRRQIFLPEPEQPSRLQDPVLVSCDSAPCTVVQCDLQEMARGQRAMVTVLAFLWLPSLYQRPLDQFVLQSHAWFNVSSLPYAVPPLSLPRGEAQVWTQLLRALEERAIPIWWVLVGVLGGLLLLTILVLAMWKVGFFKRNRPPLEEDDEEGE
Sequence of washed human platelets (P05106 27-788): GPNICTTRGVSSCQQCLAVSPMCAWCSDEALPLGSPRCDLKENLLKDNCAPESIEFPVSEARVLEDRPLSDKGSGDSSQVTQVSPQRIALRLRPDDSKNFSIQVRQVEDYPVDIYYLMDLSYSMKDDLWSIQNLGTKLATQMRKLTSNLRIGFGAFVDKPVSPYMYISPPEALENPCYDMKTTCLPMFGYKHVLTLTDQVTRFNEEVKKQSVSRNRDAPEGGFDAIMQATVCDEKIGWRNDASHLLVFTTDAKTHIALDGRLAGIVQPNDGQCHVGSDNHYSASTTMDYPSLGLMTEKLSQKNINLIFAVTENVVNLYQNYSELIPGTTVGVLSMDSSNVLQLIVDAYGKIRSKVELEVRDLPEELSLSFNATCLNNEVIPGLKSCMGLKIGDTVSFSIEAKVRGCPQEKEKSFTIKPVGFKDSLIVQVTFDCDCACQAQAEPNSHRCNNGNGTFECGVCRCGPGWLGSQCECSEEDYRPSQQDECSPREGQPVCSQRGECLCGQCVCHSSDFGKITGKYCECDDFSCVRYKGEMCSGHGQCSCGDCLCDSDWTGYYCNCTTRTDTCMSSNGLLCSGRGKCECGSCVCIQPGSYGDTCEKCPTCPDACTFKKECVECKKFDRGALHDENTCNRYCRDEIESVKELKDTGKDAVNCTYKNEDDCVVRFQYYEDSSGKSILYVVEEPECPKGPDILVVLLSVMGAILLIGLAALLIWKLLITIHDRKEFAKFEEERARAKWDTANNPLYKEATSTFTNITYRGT
Sequence of human platelets in platelet-rich plasma (P08514 32-1039): as the sequence (P08514 32-1039) above
Sequence of human platelets in platelet-rich plasma (P05106 27-788): as the sequence (P05106 27-788) above

Take `N=C(N)NCCC[C@H](NC(=O)CN)C(=O)NCC(=O)N[C@@H](CC(=O)O)C(=O)N[C@@H](CO)C(=O)N1CCC[C@H]1C(N)=O` [GRGDSP--NH2, reference compound]: the values for the inhibition at 100 µM (against washed human platelets; in assay [1] (peptide 10^-4 M)) were 55% and 23%, respectively.

For “Arg-Gly-Asp-(p-phenyl-phenylalanine)-amide [RGD(p-phenyl-Phe)--NH2]”, the “% Inhibition at 10^-4 M” value in assay [1] (peptide 10^-4 M) is given as 100%.

Turning to `N=C(N)NCCC[C@H](N)C(=O)NCC(=O)N[C@@H](CC(=O)O)C(=O)N[C@@H](Cc1ccccc1)C(N)=O` [RGDF--NH2, reference compound] (H-RGDF-NH2), the inhibition at 100 µM turned out to be 77% against washed human platelets and 100% in assay [1] (peptide 10^-4 M).

The molecule `N=C(N)NCCC[C@H](N)C(=O)NCC(=O)N[C@@H](CC(=O)O)C(=O)N[C@@H](Cc1ccc(O)cc1)C(N)=O` [RGDY--NH2, reference compound] (H-RGDY-NH2) showed an inhibition at 100 µM against washed human platelets of 45%. Besides, the “inhibition in the in vivo thrombocytopenia assay” value in assay [2] came out at 19%. Also, the “% Inhibition at 1 mg/kg” value in assay [2] (rat, i.v. infusion) was 19 ± 12%. The “Maximum Inhibition %” value in assay [2] (rat, i.v. infusion, collagen induced thrombocytopenia) was determined as 20%.

Take `CCOc1ccc(C[C@H](NC(=O)[C@H](CC(=O)O)NC(=O)CNC(=O)[C@@H](N)CCCNC(=N)N)C(N)=O)cc1` [RGD(O--ethyl-Tyr)--NH2, Arg-Gly-Asp-(O-ethyltyrosine)-amide] (H-RGDY(Et)-NH2): testing at 100 µM against washed human platelets gave an inhibition of 54%.

In the case of `COc1ccc(C[C@H](NC(=O)[C@H](CC(=O)O)NC(=O)CNC(=O)[C@@H](N)CCCNC(=N)N)C(N)=O)cc1` [RGD(O--methyl-Tyr)--NH2, Arg-Gly-Asp-(O-methyltyrosine)-amide] (H-RGDY(Me)-NH2), the results for the IC50 (against washed human platelets; in assay [1] (read-out: IC50)) were 20 µM and 30 µM, respectively. For the same molecule, the figures for the inhibition at 100 µM (at washed human platelets; in assay [1] (peptide 10^-4 M)) were 79% and 100%, respectively.

Turning to `NC(=O)[C@H](Cc1ccccc1)NC(=O)[C@H](CC(=O)O)NC(=O)CNC(=O)[C@@H](N)CCCN=C(N)N` [RGDF--NH2, reference compound] (H-RGDF-NH2), the IC50 against washed human platelets came out at 10 µM; in assay [1] (read-out: IC50), 20 µM.

`N=C(N)NCCC[C@H](N)C(=O)NCC(=O)N[C@@H](CC(=O)O)C(=O)N[C@@H](CO)C(=O)O` [RGDS, Arg-Gly-Asp-Ser, reference compound]: the figures for the inhibition at 100 µM (at washed human platelets; in assay [1] (peptide 10^-4 M)) were 71% and 25%, respectively.

In the case of `COc1ccc(C[C@H](NC(=O)[C@H](CC(=O)O)NC(=O)CNC(=O)CCCCCNC(=N)N)C(N)=O)cc1` [des-amino-(homoarginine)-Gly-Asp-(O-methyltyrosine)-amide], the IC50 on washed human platelets is 10 µM; in assay [1] (read-out: IC50) it was 20 µM. The results for the inhibition at 100 µM (on washed human platelets; in assay [1] (peptide 10^-4 M)) were 82% and 100%, respectively.

As for `COc1cc(C)c(CC(NC(=O)[C@H](CC(=O)O)NC(=O)CNC(=O)[C@@H](N)CCCNC(=N)N)C(N)=O)c(C)c1` (stereo partly drawn) [RGD(2,6-dimethyl-O--methyl-Tyr)--NH2, Arg-Gly-Asp-(2,6-dimethyl-O-methyltyrosine)amide], the IC50 against washed human platelets was 20 µM; in assay [1] it was 90 µM. Besides, the inhibition at 100 µM against washed human platelets was found to be 78%; in assay [1] (peptide 10^-4 M) it was 53%.

With `COc1ccc(C[C@H](NC(=O)[C@H](CC(=O)O)NC(=O)CNC(=O)[C@@H](CCCNC(=N)N)NC(C)=O)C(N)=O)cc1` [Ac--(D-Arg)GD(O--methyl-Tyr)--NH2, acetyl-(D-Arg)-Gly-Asp-(O-methyltyrosine)-amide] (Ac-[dR]GDY(Me)-NH2), the inhibition at 100 µM in assay [1] (peptide 10^-4 M) worked out at 71%.

On washed human platelets, `CC(=O)N[C@@H](CCCN=C(N)N)C(=O)NCC(=O)N[C@@H](CC(=O)O)C(=O)N[C@@H](Cc1ccc(O)cc1)C(N)=O` [Ac--RGDY--NH2] (Ac-RGDY-NH2) returned an IC50 of 50 µM.

Take `CC(=O)N[C@@H](CCCNC(=N)N)C(=O)NCC(=O)N[C@@H](CC(=O)O)C(=O)N[C@@H](Cc1ccc(O)cc1)C(N)=O` [Ac--RGDY--NH2] (Ac-RGDY-NH2): the figures for the inhibition at 100 µM (at washed human platelets; in assay [1] (peptide 10^-4 M)) were 68% and 48%, respectively. Besides, the “inhibition in the in vivo thrombocytopenia assay” value in assay [2] is listed as 85%. Moreover, the “% Inhibition at 1 mg/kg” value in assay [2] (rat, i.v. infusion) came out at 85%.

`COc1ccc(C[C@H](NC(=O)[C@H](CC(=O)O)NC(=O)CNC(=O)[C@H](CCCNC(=N)N)NC(C)=O)C(N)=O)cc1` [Ac--RGD(O--methyl-Tyr)--NH2, acetyl-Arg-Gly-Asp-(O-methyltyrosine)-amide] (Ac-RGDY(Me)-NH2): the IC50 (on washed human platelets; in assay [1] (read-out: IC50)) was 20 µM throughout. Further, the inhibition at 100 µM on washed human platelets was found to be 78%; in assay [1] (peptide 10^-4 M) it was 100%. Moreover, in assay [2] (rat, i.v. infusion), the “% Inhibition at 1 mg/kg” value is given as 86%.

Consider `COc1ccc(CC(NC(=O)[C@H](CC(=O)O)NC(=O)CNC(=O)[C@@H](N)CCCNC(=N)N)C(N)=O)c2ccccc12` (stereo partly drawn) [RGD(4-methoxy-1-naphthyl-Ala)--NH2, Arg-Gly-Asp-(4-methoxy-1-naphthylalanine)-amide], for which, in assay [1] (read-out: IC50), the IC50 came out at 10 µM. The inhibition at 100 µM in assay [1] (peptide 10^-4 M) is 100%.

`COc1ccc(C[C@H](NC(=O)[C@H](CC(=O)O)NC(=O)CNC(=O)CCCCNC(=N)N)C(N)=O)cc1` [des-NH2 --RGD(O--methyl-Tyr)--NH2, des-amino-Arg-Gly-Asp-(O-methyltyrosine)-amide]: the IC50 is 10 µM on washed human platelets and 20 µM in assay [1] (read-out: IC50). In addition, the inhibition at 100 µM against washed human platelets is 90%; in assay [1] (peptide 10^-4 M), 100%.
